Results from the supplement of paper PMC8988213.
Counter-ions that a name gives are not always drawn.

Legend:
[1] = test system: ID188 patient-derived PDAC 2D line (pre-FOLFIRINOX); assay: normalised area under dose-response curve (viability relative to DMSO, 7 doses up to 10 µM) (fraction (AUC)); higher = less sensitive (more viability retained); conditions: 72 h; top dose: 10 µM
Procedure: (§1)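 Patient-derived 2D PDAC cells (ID188 pre-FOLFIRINOX, passage 5+27; ID211 post-FOLFIRINOX, passage 9+11), 1,500-3,000 cells/well in 96-well plates, were treated with a 415-compound Selleck library in seven concentrations (3-fold dilution series, top 10 µM) for 72 h. Viability was read by CellTiter-Glo ATP luminescence, normalised to the DMSO control, and the area under the dose-response curve was computed with the GRmetrics R package; a lower AUC means higher sensitivity.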

[2] = test system: ID211 patient-derived PDAC 2D line (post-FOLFIRINOX); assay: as above; conditions: 72 h; top dose: 10 µM
Procedure: as §1

| SMILES | normalised area under dose-response curve [1] | normalised area under dose-response curve [2] |
| --- | --- | --- |
| Cc1cc(Nc2ccc(NC(=O)c3ccc(Nc4ccnc5ccccc45)cc3)cc2)nc(N)n1 [SGI-1027] | 0.662 | 0.569 |
| CNC(=O)[C@H](Cc1c[nH]c2ccccc12)NC(=O)[C@@H](CC(=O)NO)CC(C)C [Ilomastat (GM6001, Galardin)] | 1.05 | 0.809 |
| N#Cc1ccc(-c2csc(NN=C3CCCC3)n2)cc1 [Remodelin] | 0.941 | 0.854 |
| Cc1ccc(C(=O)N(CCCN)[C@@H](c2nc3cc(Cl)ccc3c(=O)n2Cc2ccccc2)C(C)C)cc1 | 0.5 | 0.697 |
| Cn1cc(-c2ccc3nnc(Sc4ccc5ncccc5c4)n3n2)cn1 [SGX-523] | 0.983 | 0.941 |
| CS(=O)(=O)CCNCc1ccc(-c2ccc3ncnc(Nc4ccc(OCc5cccc(F)c5)c(Cl)c4)c3c2)o1 | 0.924 | 0.614 |
| COCCOc1ccc2c(c1)ncn2-c1ccc2cccc(N3CCC(N)CC3)c2n1 | 0.974 | 1.03 |
| COc1cc2c(Oc3ccc4[nH]c(C)cc4c3F)ncnc2cc1OCCCN1CCCC1 [Cediranib (AZD2171)] | 0.927 | 0.83 |
| Cc1cc(O)c(-c2ccc([C@@H](C)CN)cc2)c2c1[nH]c(=O)c1sccc12 [OTS514 hydrochloride] | 0.368 | 0.443 |
| COC(=O)c1ccc([C@H]2c3[nH]c4ccccc4c3C[C@H](C(=O)OC)N2C(=O)CCl)cc1 [RSL3] | 0.465 | 0.175 |
| Cc1ccc(F)c(NC(=O)Nc2ccc(-c3cccc4[nH]nc(N)c34)cc2)c1 [Linifanib (ABT-869)] | 0.889 | 0.814 |
| Cc1cc(OCc2nnc(SC3CCCC3)n2-c2cccnc2)ccc1-c1ccc(S(C)(=O)=O)cc1 [NMS-873] | 0.8 | 0.406 |
| CONC(=O)c1ccccc1Nc1cc(Nc2cc(C)nn2C(C)C)ncc1Cl | 0.812 | 0.844 |
| NC(=O)/C(=C/n1cnc(-c2cc(C(F)(F)F)cc(C(F)(F)F)c2)n1)c1cncnc1 [Eltanexor (KPT-8602)] | 0.574 | 0.579 |
| Cc1ccc(NCCCc2ccccc2)c(N)c1 [JSH-23] | 0.97 | 0.79 |
| CNC(=O)c1cc(Oc2ccc(NC(=O)Nc3ccc(Cl)c(C(F)(F)F)c3)cc2)ccn1 [Sorafenib Tosylate] | 0.947 | 0.953 |
| CC(C)C[C@H](NC(=O)[C@H](CCc1ccccc1)NC(=O)CN1CCOCC1)C(=O)N[C@@H](Cc1ccccc1)C(=O)N[C@@H](CC(C)C)C(=O)[C@@]1(C)CO1 [Carfilzomib (PR-171)] | 0.126 | 0.0368 |
| O=C(Nc1cccc(C(F)(F)F)c1)Nc1cc(S(=O)(=O)NC2CC2)ccc1-c1ccsc1 [AGI-6780] | 0.906 | 0.842 |
| CNC(=O)c1ccc2cc([C@@]3(O)CCn4cncc43)ccc2c1 [TAK-700 (Orteronel)] | 1 | 0.863 |
| O=C1C2CCN(CC2)C1(CO)CO [PRIMA-1] | 0.947 | 0.867 |
| Oc1c2ccccc2c2c3c(cccc13)N=N2 | 0.881 | 1.04 |
| O=C(O)c1nn(Cc2ccc(Cl)cc2Cl)c2ccccc12 [Lonidamine] | 0.934 | 0.87 |
| CC(C)(C)c1ccc(S(=O)(=O)NCc2ccc(C(=O)Nc3cccnc3)cc2)cc1 [STF-31] | 0.864 | 0.865 |
| CC(C)=CCC/C(C)=C/CC/C(C)=C/CSc1ccccc1C(=O)O [Salirasib] | 0.949 | 0.881 |
| CC(C)N(C[C@H]1O[C@@H](n2cnc3c(N)ncnc32)[C@H](O)[C@@H]1O)[C@H]1C[C@@H](CCc2nc3cc(C(C)(C)C)ccc3[nH]2)C1 [Pinometostat (EPZ5676)] | 0.916 | 0.8 |

| SMILES | normalised area under dose-response curve [1] | normalised area under dose-response curve [2] |
| --- | --- | --- |
| COc1ccc(S(=O)(=O)Nc2cccnc2Nc2ccc(O)cc2)cc1 [ABT-751 (E7010)] | 0.794 | 0.644 |
| CCCCCCCCCCCCc1ccc(S(=O)(=O)Nc2nncs2)cc1 [PHT-427] | 0.871 | 0.931 |
| C#Cc1cccc(Nc2ncnc3cc(OC)c(OCCCCCCC(=O)NO)cc23)c1 [CUDC-101] | 0.827 | 0.765 |
| Cn1cc(C2=C(c3ccc(Cl)cc3Cl)C(=O)NC2=O)c2ccccc21 | 0.813 | 0.787 |
| c1cn2cc(-c3ccc4cn[nH]c4c3)nc(Nc3ccc(N4CCOCC4)cc3)c2n1 [Entospletinib (GS-9973)] | 0.891 | 0.792 |
| COc1cc2nccc(Oc3ccc(NC(=O)C4(C(=O)Nc5ccc(F)cc5)CC4)cc3)c2cc1OC [Cabozantinib malate (XL184)] | 0.585 | 0.78 |
| CNC(=O)c1nn(C)c2c1C(C)(C)Cc1cnc(Nc3ccc(N4CCN(C)CC4)cc3)nc1-2 | 0.776 | 0.783 |
| Clc1ccc(C(c2c[nH]c3ccccc23)c2c[nH]c3ccccc23)cc1 [C-DIM12] | 0.92 | 0.897 |
| CS(=O)(=O)c1ccc(C(=O)Nc2ccc(Cl)c(-c3ccccn3)c2)c(Cl)c1 [Vismodegib (GDC-0449)] | 0.926 | 0.84 |
| Cc1ccc(NC(=O)c2ccc(CN3CC[C@H](N(C)C)C3)c(C(F)(F)F)c2)cc1Nc1nccc(-c2cncnc2)n1 [Bafetinib (INNO-406)] | 0.906 | 0.841 |
| C[C@@H]1CN(CC(=O)Nc2ccc3c(c2)Cc2cccc(-c4cc(=O)cc(N5CCOCC5)o4)c2S3)C[C@H](C)O1 | 0.936 | 0.842 |
| Nc1ccccc1NC(=O)c1ccc(CNC(=O)OCc2cccnc2)cc1 [Entinostat (MS-275)] | 0.835 | 0.73 |
| CO[C@@H](C(=O)N1Cc2[nH]nc(NC(=O)c3ccc(N4CCN(C)CC4)cc3)c2C1)c1ccccc1 | 0.766 | 0.611 |
| Cn1ncc(Cl)c1-c1cc(C(=O)N[C@H](CN)Cc2ccc(F)c(F)c2)oc1Cl | 0.805 | 0.789 |
| CC[C@]1(O)C[C@H]2CN(CCc3c([nH]c4ccccc34)[C@@](C(=O)OC)(c3cc4c(cc3OC)N(C=O)[C@H]3[C@@](O)(C(=O)OC)[C@H](OC(C)=O)[C@]5(CC)C=CCN6CC[C@]43[C@@H]65)C2)C1 [Vincristine sulfate] | 0.558 | 0.441 |
| NC(=O)Nc1cc(-c2cccc(F)c2)sc1C(=O)N[C@H]1CCCNC1 [AZD7762] | 0.558 | 0.507 |
| COc1nc(C)cnc1NS(=O)(=O)c1cccnc1-c1ccc(-c2nnco2)cc1 [Zibotentan (ZD4054)] | 0.96 | 0.955 |
| CN[C@@H](C)C(=O)N[C@H](C(=O)N1CCC[C@H]1c1nc(C(=O)c2ccc(F)cc2)cs1)C1CCCCC1 [LCL161] | 0.585 | 0.922 |
| FC(F)(F)c1ccc(/C=C/c2nc(COc3ccc(CCCCn4ccnn4)cc3)co2)cc1 [Mubritinib (TAK 165)] | 0.735 | 0.784 |
| COc1ccc(C2=N[C@@H](c3ccc(Cl)cc3)[C@@H](c3ccc(Cl)cc3)N2C(=O)N2CCNC(=O)C2)c(OC(C)C)c1 [Nutlin-3] | 0.97 | 0.82 |
| CCCCCCCCCCCCCC(=S)NCCCC[C@H](NC(=O)OCc1ccccc1)C(=O)Nc1ccccc1 [Thiomyristoyl] | 0.925 | 0.787 |
| O=c1[nH]nc(Sc2ncc([N+](=O)[O-])s2)n1-c1ccc2c(c1)OCCO2 [BI-78D3] | 0.965 | 0.811 |
| C=CC(=O)N1CC/C(=C\c2ccc(F)c([N+](=O)[O-])c2)C(=O)/C(=C/c2ccc(F)c([N+](=O)[O-])c2)C1 [VLX1570] | 0.602 | 0.243 |
| Cc1cc([N+](=O)[O-])ccc1NS(=O)(=O)c1cc(Cl)ccc1Cl [FH535] | 0.91 | 0.922 |
| CC(C)CCn1c(CN2CCN(C(=O)C3CC3)CC2)nc2c1c(=O)n(C)c(=O)n2C [NCT-501] | 0.965 | 0.822 |
